Where two headings read alike, the source gives them in different places.
Test system: human chopped lung tissue
Experiment: Inhibition of histamine release from human chopped lung tissue passively sensitized in vitro with reaginic antibody, challenged with homologous antigen
Type: cell-based
Settings: for inhibition at 0.001 µM: Salbutamol 10^-9 M alone; for inhibition at 0.0001 µM: Salbutamol 10^-10 M alone; for inhibition at 1 µM: Compound (II) 10^-6 M alone
From the text: The release of histamine from lung preparations treated in this way is known to be inhibited by both the stimulants and the compounds of formula (I) when used separately, but it has now been shown that their combined effect is greater than was to be expected from a knowledge of the activity of the individual components, and in particular the inhibition is greater than the sum of the individual responses when the components are used separately at the same concentrations. The compounds of formula (I) are represented by the formula [drawing 1] wherein Z is carbonyl (C=O) or oxygen (--O--), and X is carboxy or a 5-tetrazolyl group, and salts thereof with pharmaceutically acceptable cations. Of especial value are:
The experimental procedure used was that using chopped human lung tissue substantially as described in Br. Med. J. 3, 272 (1968).

[1] = Homo sapiens, Experiment A, Compound (II) none, read-out: Percentage Inhibition of Histamine Release
[2] = Homo sapiens, Experiment B, Compound (II) none, read-out: Percentage Inhibition of Histamine Release

SMILES	inhibition at 0.001 µM [1] [%]	inhibition at 0.0001 µM [1] [%]	inhibition at 0.01 µM (Homo sapiens, Experiment B, Salbutamol 10^-8 M alone, Compound (II) none, read-out: Percentage Inhibition of Histamine Release) [%]	inhibition at 0.001 µM [2] [%]	inhibition at 0.0001 µM [2] [%]	Percentage Inhibition of Histamine Release (Experiment A, combination: Compound (II) 10^-6 M + Salbutamol 10^-9 M) [%]	Percentage Inhibition of Histamine Release (Experiment A, combination: Compound (II) 10^-6 M + Salbutamol 10^-10 M) [%]	Percentage Inhibition of Histamine Release (Experiment B, combination: Compound (II) 10^-6 M + Salbutamol 10^-8 M) [%]	Percentage Inhibition of Histamine Release (Experiment B, combination: Compound (II) 10^-6 M + Salbutamol 10^-9 M) [%]	Percentage Inhibition of Histamine Release (Experiment B, combination: Compound (II) 10^-6 M + Salbutamol 10^-10 M) [%]	Percentage Inhibition of Histamine Release (Experiment B, combination: Compound (II) 10^-7 M + Salbutamol 10^-8 M) [%]	Percentage Inhibition of Histamine Release (Experiment B, combination: Compound (II) 10^-7 M + Salbutamol 10^-9 M) [%]	Percentage Inhibition of Histamine Release (Experiment B, combination: Compound (II) 10^-7 M + Salbutamol 10^-10 M) [%]	inhibition at 1 µM (Homo sapiens, Experiment A, Salbutamol none, read-out: Percentage Inhibition of Histamine Release) [%]	inhibition at 1 µM (Homo sapiens, Experiment B, Salbutamol none, read-out: Percentage Inhibition of Histamine Release) [%]	inhibition at 0.1 µM (Homo sapiens, Experiment B, Compound (II) 10^-7 M alone, Salbutamol none, read-out: Percentage Inhibition of Histamine Release) [%]	anti-allergic effect in combination with bronchodilator stimulants (combined with bronchodilators acting directly or indirectly by stimulation)
CC(C)(C)NCC(O)c1ccc(O)c(CO)c1 (stereo not drawn) [Salbutamol, α'-t-butylaminomethyl-4-hydroxy-m-xylene-α',α^3-diol, reference compound]	0	17	27	22	0.9												
O=C1c2ccccc2S(=O)(=O)c2cc(-c3nnn[nH]3)ccc21 [Compound (II), 3-(5-TETRAZOLYL)THIOXANTHONE-10,10-DIOXIDE]						49	58	38	96	-11	64	80.5	-5	15	-14.5	-13	potentiated
